This assay has as its target T1, NPY5R (Homo sapiens, UniProt Q15761).
T1 construct: purchased Promega (in-house HiBiT-GPCR construct library, NanoBRET)
T1 sequence (Q15761 1-445): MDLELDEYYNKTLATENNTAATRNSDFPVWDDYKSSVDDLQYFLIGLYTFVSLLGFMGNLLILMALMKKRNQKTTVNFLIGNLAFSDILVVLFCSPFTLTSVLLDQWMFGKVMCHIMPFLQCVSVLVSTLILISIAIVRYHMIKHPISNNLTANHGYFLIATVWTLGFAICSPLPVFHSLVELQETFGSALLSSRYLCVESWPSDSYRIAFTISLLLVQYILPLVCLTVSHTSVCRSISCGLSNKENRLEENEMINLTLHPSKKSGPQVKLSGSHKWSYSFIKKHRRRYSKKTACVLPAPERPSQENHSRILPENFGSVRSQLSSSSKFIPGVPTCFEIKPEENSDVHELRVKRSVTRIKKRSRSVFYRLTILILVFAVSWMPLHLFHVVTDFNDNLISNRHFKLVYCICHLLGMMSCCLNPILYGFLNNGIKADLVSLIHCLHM
Description: NanoBRET screen HiBiT-NPY5R in HEK293. The format is binding. Here is the method: Each tracer candidate was screened across the entire library of HiBiT-GPCR constructs using NanoBRET as the detection modality. As depicted in Figure 4A, the specificity of interactions was evaluated through decrease in BRET due to competitive displacement of a bound tracer by excess parental compound. Each tracer was analyzed for binding to each HiBiT-GPCR fusion in the absence and in the presence of competing parental compound. Briefly, HEK293 cells were transfected with HiBiT-GPCR constructs diluted into promoterless DNA to reduce expression and maximize translocation to the cell surface. Each tracer candidate was then screened at concentrations of 1 μM and 0.1 μM across cells expressing these fusions. Cells were treated for 1.5 h with tracer either alone or in the presence of 20 μM competing parental compound (i.e., control). BRET was measured upon addition of purified LgBiT and subsequent complementation with HiBiT genetically fused to a GPCR. The specificity of interactions was assessed through a decrease in BRET signal due to competitive displacement of the bound tracer. To further gauge the robustness of these interactions, the fold response over the control (i.e., BRETtracer/BRETcontrol) was calculated. We chose a 1.5-fold response, which translates to ≥7-fold signal over noise as the minimal threshold required to score an interaction as positive.
HiBiT-GPCR DNA constructs were diluted in 10 mM Tris pH 8 to a final concentration of 0.01 μg/μL, arrayed in 96-well plates and stored at −20 °C. For transfection, HEK293 cells were suspended in Opti-MEM (without phenol red) supplemented with 2% fetal bovine serum (Seradigm) and 100 units/mL penicillin–streptomycin (Gibco) at a final concentration of 220,000 cells/mL and dispensed into white 96-well plates at 90 μL/well. Subsequent transfections and screens were carried using an Agilent Bravo Automated Liquid Handling Platform. First, the 96-well HiBiT DNA arrays were diluted 25-fold in Opti-MEM (without serum or phenol red) to a final concentration of 0.0004 μg/μL and 20 μL of the diluted DNAs were transferred into new 96-well plates. Next, promoterless carrier DNA (1 μg/μL) was diluted 25-fold (0.04 μg/μL) and then dispensed into the diluted arrays at 20 μL/well. Following brief mixing, Viafect transfection reagent (Promega) diluted 16-fold into Opti-MEM was dispensed into the plates at 40 μL/well. After mixing by pipetting, plates were incubated for 10 min on the pipetting station deck. The DNA-transfection reagent complexes were then added to plates containing cells. To facilitate the screen, 10 μL of DNA-transfection reagent complexes were added in duplicates to the top 4 and bottom 4 rows, resulting in two identical 48-well arrays per plate. Plates with transfected cells were incubated for 18–20 h at 37 °C/5% CO2. A screen of each tracer across the entire library using two different concentrations requires duplicate plates of transfected cells. Depending on the number of tracers being screened, transfections can be scaled up using the same ratios. The next day, for each tracer, four 20× screening solutions in tracer dilution buffer (Promega) were prepared: two duplicates at final concentration of 20 μM and two duplicates at a final concentration of 2 μM. […] The four resulting solutions were diluted 4-fold in Opti-MEM without serum or phenol red to generate 5× solutions (5 µM and 0.5 µM tracer +/− 100 μM competing compound). To screen the library, a BioTek MultiFlo FX liquid dispenser was used to dispense 22.5 µL of tracer solution to the top 4 rows and 22.5 µL tracer + competing compound solution to the 4 bottom rows. Plates were briefly mixed on an orbital shaker and incubated for 1.5 h at room temperature. […] Plates were briefly mixed on an orbital shaker and incubated for 15 min to allow complementation.
Background: In BRET a luciferase serves as donor, and the signal depends on an acceptor being close.

For `CN1CCN(C2=Nc3cc(Cl)ccc3N(CC(=O)NCCOCCOCCOCCOCCNC(=O)CCc3ccc4n3[B-](F)(F)[N+]3=C(c5ccc[nH]5)C=CC3=C4)c3ccccc32)CC1` [Clozapine-c-2-NB590], the “NanoBRET Fold Response” value runs as follows: (NPY5R, 0.1μM tracer) 0.99; (NPY5R, 1μM tracer) 0.97.

Regarding `O=C(CCOCCOCCOCCOCCNC(=O)CCc1ccc2n1[B-](F)(F)[N+]1=C(c3ccc[nH]3)C=CC1=C2)NCCCN1CCN(C2=Nc3cc(Cl)ccc3Nc3ccccc32)CC1` [Clozapine-a-2-NB590], the “NanoBRET Fold Response” value (NPY5R, 0.1μM tracer) turned out to be 1.15 and the “NanoBRET Fold Response” value (NPY5R, 1μM tracer) was found to be 0.96.

In the case of `CCOC(=O)c1cc(C#N)c(N2CCC(C(=O)NS(=O)(=O)Cc3ccccc3/C=C/C(=O)NCCNC(=O)CCc3ccc4n3[B-](F)(F)[N+]3=C(c5ccc[nH]5)C=CC3=C4)CC2)nc1C` [AZD1283-1-NB590], the “NanoBRET Fold Response” value is on record as 1.01 (NPY5R, 0.1μM) and 1.03 (NPY5R, 1μM).

As for `COc1ccc2[nH]c(-c3ccc(CNC(=O)CCOCCOCCOCCOCCNC(=O)CCc4ccc5n4[B-](F)(F)[N+]4=C(c6ccc[nH]6)C=CC4=C5)cc3)c(CCNC(C)=O)c2n1` [AzomelatoninICO9-2-NB590], the “NanoBRET Fold Response” value came to 0.91 (0.1μM tracer) and 1.07 (1μM tracer).

On to `CCCn1c(=O)c2[nH]c(-c3ccc(OCC(=O)NCCNC(=O)CCOCCNC(=O)c4ccc(CNC(=O)CCc5ccc6n5[B-](F)(F)[N+]5=C(c7ccc[nH]7)C=CC5=C6)cc4)cc3)nc2n(CCC)c1=O` [XAC-3-NB590], for which the “NanoBRET Fold Response” value came out at 1.02 (NPY5R, tracer 0.1μM) and 1.10 (NPY5R, tracer 1μM).

For `COc1ccccc1N1CCN(CCCCN2C(=O)c3ccc(CNC(=O)CCOCCNC(=O)c4ccc(CNC(=O)CCc5ccc6n5[B-](F)(F)[N+]5=C(c7ccc[nH]7)C=CC5=C6)cc4)cc3C2=O)CC1` [NAN-190-3-NB590], the “NanoBRET Fold Response” value amounted to 1.01 (NPY5R, tracer 0.1μM) and 0.97 (NPY5R, tracer 1μM).

For `O=C(CCc1ccc2n1[B-](F)(F)[N+]1=C(c3ccc[nH]3)C=CC1=C2)NCc1ccc(C(=O)NCCOCCOCCNCC(O)COc2cccc3ccccc23)cc1` (stereo not drawn) [Propranolol-3-NB590], the “NanoBRET Fold Response” value (NPY5R, 0.1μM) was found to be 0.99 and the “NanoBRET Fold Response” value (NPY5R, 1μM) worked out at 1.01.

As to `COc1ccc2c(n1)c(CCNC(C)=O)cn2CCNC(=O)CCc1ccc2n1[B-](F)(F)[N+]1=C(c3ccc[nH]3)C=CC1=C2` [Azamelatonin-1-NB590], the “NanoBRET Fold Response” value is, setting by setting: (0.1μM tracer) 1.14; (1μM tracer) 1.09.

In the case of `O=C(CCOCCOCCOCCOCCNC(=O)CCc1ccc2n1[B-](F)(F)[N+]1=C(c3ccc[nH]3)C=CC1=C2)NCCCN1CCN(C2=Nc3ccccc3Oc3ccc(Cl)cc32)CC1` [Loxapine-a-2-NB590], the “NanoBRET Fold Response” value runs as follows: (NPY5R, tracer 0.1μM) 0.96; (NPY5R, tracer 1μM) 1.09.

Regarding `CC(C)N(CC[C@H](c1ccccc1)c1cc(CCNC(=O)c2ccc(CNC(=O)CCc3ccc4n3[B-](F)(F)[N+]3=C(c5ccc[nH]5)C=CC3=C4)cc2)ccc1O)C(C)C` [Tolterodine-BZ-NB590], the “NanoBRET Fold Response” value (NPY5R, tracer 0.1μM) was 1.05 and the “NanoBRET Fold Response” value (NPY5R, tracer 1μM) is 0.99.

On to `O=C(CCc1ccc2n1[B-](F)(F)[N+]1=C(c3ccc[nH]3)C=CC1=C2)NCCOCCOCCNC(=O)OCCOCCN1CCN(C2=Nc3ccccc3Sc3ccccc32)CC1` [Quetiapine-a-2-NB590], for which the “NanoBRET Fold Response” value is reported as 0.98 (NPY5R, tracer 0.1μM) and 0.87 (NPY5R, tracer 1μM).

Take `CN1CCN(C2=Nc3cc(Cl)ccc3Nc3ccc(CNC(=O)CCOCCOCCOCCOCCNC(=O)CCc4ccc5n4[B-](F)(F)[N+]4=C(c6ccc[nH]6)C=CC4=C5)cc32)CC1` [Clozapine-b-2-NB590]: the “NanoBRET Fold Response” value reads like this: (NPY5R, 0.1μM tracer) 1.02; (NPY5R, 1μM tracer) 1.04.

Turning to `CC(C)N(CC[C@H](c1ccccc1)c1cc(CCNC(=O)CCOCCOCCOCCOCCNC(=O)CCc2ccc3n2[B-](F)(F)[N+]2=C(c4ccc[nH]4)C=CC2=C3)ccc1O)C(C)C` [Tolterodine-2-NB590], the “NanoBRET Fold Response” value reads like this: (NPY5R, tracer 0.1μM) 0.95; (NPY5R, tracer 1μM) 0.95.

On to `CN(C)CCC=C1c2ccccc2CCc2ccc(C(=O)NCCNC(=O)CCOCCOCCOCCOCCNC(=O)CCc3ccc4n3[B-](F)(F)[N+]3=C(c5ccc[nH]5)C=CC3=C4)cc21` [Amitriptyline-a-2-NB590], for which the “NanoBRET Fold Response” value runs as follows: (tracer at 0.1μM) 1.03; (tracer at 1μM) 0.99.

For `Cc1cc2c(s1)Nc1ccccc1N=C2N1CCN(CCCNC(=O)CCOCCOCCOCCOCCNC(=O)CCc2ccc3n2[B-](F)(F)[N+]2=C(c4ccc[nH]4)C=CC2=C3)CC1` [Olanzapine-a-2-NB590], the “NanoBRET Fold Response” value runs as follows: (NPY5R, tracer 0.1μM) 1.00; (NPY5R, tracer 1μM) 1.01.

`N#CN=C(NCCCOc1cccc(CN2CCCCC2)c1)NCCNC(=O)CCOCCOCCOCCOCCNC(=O)CCc1ccc2n1[B-](F)(F)[N+]1=C(c3ccc[nH]3)C=CC1=C2` [Aminopotentidine-2-NB590]: the “NanoBRET Fold Response” value runs as follows: (NPY5R, tracer 0.1μM) 1.04; (NPY5R, tracer 1μM) 0.97.

Turning to `Cc1nc2n(c(=O)c1CCN1CCC(c3noc4cc(F)ccc34)CC1)CCCC2OC(=O)NCCOCCOCCOCCOCCNC(=O)CCc1ccc2n1[B-](F)(F)[N+]1=C(c3ccc[nH]3)C=CC1=C2` (stereo not drawn) [Risperidone-2-NB590], the “NanoBRET Fold Response” value runs as follows: (NPY5R, tracer 0.1μM) 0.97; (NPY5R, tracer 1μM) 0.96.

Regarding `CN(C)CCC=C1c2ccccc2CCc2ccc(C(=O)NCCNC(=O)CCOCCOCCOCCOCCNC(=O)CCc3ccc4n3[B-](F)(F)[N+]3=C(c5ccc[nH]5)C=CC3=C4)cc21` [Amitriptyline-b-2-NB590], the “NanoBRET Fold Response” value amounted to 0.89 (tracer at 0.1μM, listed as amitriptyline-b-2-NB590) and 1.02 (tracer at 1μM, listed as amitriptyline-b-2-NB590).

The values above are taken from PMC8151276, “An Integrated Approach toward NanoBRET Tracers for Analysis of GPCR Ligand Engagement” (Molecules, 2021).
